The record followed here is EP0571593B1, “NEW NON IONIC IODIZED AGENTS FOR X-RAY CONTRASTING, METHOD FOR PREPARING THEM AND GALENICAL COMPOSITIONS CONTAINING THEM” (CENTRO INVESTIGACION JUSTESA IMAGEN S.A., priority 1991, dated 1993).

Holding throughout (type): physicochemical
Data set [1] can be described thus: Osmolality of aqueous solutions. The note with it: 300mg I/ml.
A short description of data set [2]: Viscosity of aqueous solutions. The note with it: 30°C, 300mg I/ml.
A short description of data set [3]: Iodine content.

Regarding `COCC(=O)Nc1c(I)c(C(=O)NCC(=O)Nc2c(I)c(C(=O)NC(CO)C(O)CO)c(I)c(C(=O)NC(CO)C(O)CO)c2I)c(I)c(C(=O)NC(CO)C(O)CO)c1I` (stereo not drawn) [EXAMPLE 7, N,N'-bis-(1-hydroxymethyl-2,3-dihydroxypropyl)-5-{3-[N-(1-hydroxymethyl-2,3-dihydroxypropyl)carbamoyl]-5-methoxyacetamido-2,4,6-triiodobenzoylaminoacetamido}-2,4,6-triiodo isophthalamide], in data set [1], the “Osmolality mosm/kg at 300mg I/ml” value stood at 147 mosm/kg. In data set [2], the “Viscosity mPa s (30°C) at 300mg I/ml” value is 10,5 mPa s. For the same compound, the “% Iodine” value in data set [3] is 49,5%.
For `CN(CC(=O)N(C)c1c(I)c(C(=O)NC(CO)C(O)CO)c(I)c(C(=O)NC(CO)C(O)CO)c1I)C(=O)c1c(I)c(NC(=O)CO)c(I)c(C(=O)NCC(O)CO)c1I` (stereo not drawn) [EXAMPLE 8, N,N'-bis-(1-hydroxymethyl-2,3-dihydroxypropyl)-5-{3-[N-(2,3-dihydroxypropyl)carbamoyl]-5-hydroxyacetamido-2,4,6-triiodobenzoyl-N-methylaninoacetyl-N-nethylamino}-2,4,6-tri iodoisophthalamide] the same measures were 190 mosm/kg, 7,6 mPa s and 50%.
For `COCC(=O)Nc1c(I)c(C(=O)NC(CO)C(O)CO)c(I)c(C(=O)N(C)CC(=O)N(C)c2c(I)c(C(=O)NC(CO)C(O)CO)c(I)c(C(=O)NC(CO)C(O)CO)c2I)c1I` (stereo not drawn) [EXAMPLE 10, N,N'-bis-(1-hydroxymethyl-2,3-dihydroxypropyl)-5-{3-[N-(1-hydroxymethyl-2,3-dihydroxypropyl)carbamoyl]-5-methoxyacetamido-2,4,6-triiodobenzoyl-N-methylaminoacetyl-N-methylamino}-2,4,6-triiodoisophthalamide] the same measures were 204 mosm/kg, 8,9 mPa s and 48,6%.
Consider `COCC(=O)Nc1c(I)c(C(=O)NCC(O)CO)c(I)c(C(=O)N(C)CC(=O)N(C)c2c(I)c(C(=O)NCC(O)CO)c(I)c(C(=O)NCC(O)CO)c2I)c1I` (stereo not drawn) [EXAMPLE 12, N,N'-bis-(2,3-dihydroxypropyl)-5-{3-[N-(2,3-dihydroxypropyl)carbamoyl]-5-methoxyacetamido-2,4,6-triiodobenzoyl -N-methylaminoacetyl-N-methylamino}-2,4,6-triiodoisophthalamide], for which, in data set [1], the “Osmolality mosm/kg at 300mg I/ml” value turned out to be 130 mosm/kg. In addition, in data set [2], the “Viscosity mPa s (30°C) at 300mg I/ml” value was 8,6 mPa s. In addition, the “% Iodine” value in data set [3] is recorded as 51,6%.
As for `O=C(CN(CC(O)CO)C(=O)c1c(I)c(NC(=O)CO)c(I)c(C(=O)NCC(O)CO)c1I)Nc1c(I)c(C(=O)NCC(O)CO)c(I)c(C(=O)NCC(O)CO)c1I` (stereo not drawn) [EXAMPLE 13, N,N'-bis-(2,3-dihydroxypropyl)-5-{3-[N-(2,3-dihydroxypropyl)carbamoyl]-5-hydroxyacetamido-2,4,6-triiodobenzoyl-N-(2,3-dihydroxypropyl)aminoacetamido}-2,4,6-triiodoisophthalamide], in data set [1], the “Osmolality mosm/kg at 300mg I/ml” value is given as 190 mosm/kg. The “Viscosity mPa s (30°C) at 300mg I/ml” value in data set [2] is 7,2 mPa s. Also, in data set [3], the “% Iodine” value is given as 50,5%.
Take `COCC(=O)Nc1c(I)c(C(=O)NCC(O)CO)c(I)c(C(=O)N(CC(=O)Nc2c(I)c(C(=O)NCC(O)CO)c(I)c(C(=O)NCC(O)CO)c2I)CC(O)CO)c1I` (stereo not drawn) [EXAMPLE 15, N,N'-bis-(2,3-dihydroxypropyl)-5-{3-[N-(2,3-dihydroxypropyl)carbamoyl]-5-methoxyacetamido-2,4,6-triiodobenzoyl -N-(2,3-dihydroxypropyl)aminoacetamido}-2,4,6-triiodo isophthalamide]: the “Osmolality mosm/kg at 300mg I/ml” value in data set [1] is given as 162 mosm/kg. For the same compound, the “Viscosity mPa s (30°C) at 300mg I/ml” value in data set [2] was 8,6 mPa s. Also, the “% Iodine” value in data set [3] came to 50%.
As for `O=C(NCCO)c1c(I)c(C(=O)NCCO)c(I)c(N(CCO)C(=O)CN(CCO)C(=O)c2c(I)c(C(=O)NCC(O)CO)c(I)c(N(CCO)C(=O)CO)c2I)c1I` (stereo not drawn) [EXAMPLE 16, N,N'-bis-(2-hydroxyethyl)-5-{3-[N-(2,3-dihydroxypropyl)-carbamoyl]-5-hydroxyacetyl-N-(2-hydroxyethyl)amino-2,4,6-tri-iodobenzoyl-N-(2-hydroxyethyl)amino-acetyl-N-(2-hydroxyethyl)amino}-2,4,6-triiodoisophthalamide], the “Osmolality mosm/kg at 300mg I/ml” value in data set [1] was found to be 131 mosm/kg. The “Viscosity mPa s (30°C) at 300mg I/ml” value in data set [2] is 7,6 mPa s. Also, the “% Iodine” value in data set [3] was 50,5%.
On the same counts, the results for `COCC(=O)Nc1c(I)c(C(=O)NCC(O)CO)c(I)c(C(=O)N(CCO)CC(=O)Nc2c(I)c(C(=O)NC(CO)C(O)CO)c(I)c(C(=O)NC(CO)C(O)CO)c2I)c1I` (stereo not drawn) [EXAMPLE 22, N,N'-bis-(1-hydroxymethyl-2,3-dihydroxypropyl)-5-{3-[N-(2,3-dihydroxypropyl)carbamoyl]-5-methoxyacetamido-2,4,6-triiodobenzoyl-N-(2-hydroxyethyl)aminoacetamido}-2,4,6-triiodo isophthalamide] are 118 mosm/kg, 10,0 mPa s and 49%.
For `CC(=O)Nc1c(I)c(C(=O)NCC(O)CO)c(I)c(C(=O)N(CC(=O)N(C)c2c(I)c(C(=O)NCC(O)CO)c(I)c(C(=O)NCC(O)CO)c2I)CC(O)CO)c1I` (stereo not drawn) [EXAMPLE 23, N,N -bis-(2,3-dihydroxypropyl)-5-{3-[N-(2,3-dihydroxypropyl)carbamoyl]-5-acetamido-2,4,6-triiodobenzoyl-N-(2,3-dihydroxypropyl)aminoacetyl-N-methylamino}-2,4,6-triiodoisophthalamide] the same measures were 162 mosm/kg, 7,9 mPa s and 50,5%.
For `CN(CC(=O)N(C)c1c(I)c(C(=O)N(C)CC(O)CO)c(I)c(C(=O)N(C)CC(O)CO)c1I)C(=O)c1c(I)c(NC(=O)CO)c(I)c(C(=O)NCC(O)CO)c1I` (stereo not drawn) [EXAMPLE 24, N,N'-bis-(2,3-dihydroxypropyl)-N,N'-dimethyl-5-{3-[N-(2,3-dihydroxypropyl)carbamoyl]-5-hydroxyacetamido-2,4,6-triiodobenzoyl-N-methylaminoacetyl-N-methylamino}-triiodo isophthalamide] the same measures were 165 mosm/kg, 7,1 mPa s and 51,1%.
Turning to `COCC(=O)Nc1c(I)c(C(=O)NCC(O)CO)c(I)c(C(=O)N(C)CC(=O)N(C)c2c(I)c(C(=O)N(C)CC(O)CO)c(I)c(C(=O)N(C)CC(O)CO)c2I)c1I` (stereo not drawn) [EXAMPLE 25, N,N'-bis-(2,3-dihydroxypropyl)-N,N'-dimethyl-5-{3-[N-(2,3-dihydroxypropyl)carbamoyl]-5-methoxyacetamido-2,4,6-triiodobenzoyl-N-methylaminoacetyl-N-methylamino}-2,4,6-triiodo isophthalamide], in data set [1], the “Osmolality mosm/kg at 300mg I/ml” value is 140 mosm/kg. Also, the “Viscosity mPa s (30°C) at 300mg I/ml” value in data set [2] is on record as 8,0 mPa s. Moreover, the “% Iodine” value in data set [3] is 50,6%.
